The values that follow are results of earlier work, collected in patent US20240052003A1, “COMPOSITIONS COMPRISING PEDF-DERIVED SHORT PEPTIDES (PDSP) AND USES THEREOF” (BRIM Biotechnology, Inc., priority 2019, published 2024).

The data set relates to eye. Conditions: ocular application.

On to `NC(=O)c1cccnc1` [nicotinamide], for which the Eye irritation result is given as “may cause eye irritation”.
